# Experiment: Human HepG2 cell viability assay in 384 well format
# Type: toxicity, cell-based
# Set-up: dose 125 nL, time 70.5 hour; concentration not given beside the values
# Conditions: HepG2 cells, read-out: Inhibition
row,Structure (SMILES),cytotoxicity at 70.5 h [%]
1,C[C@H]1CN(C(=O)c2cccc(F)c2Cl)CCN1S(C)(=O)=O,-95.8
2,O=C(NCc1ccon1)N1CCC(n2ccc(C(F)(F)F)n2)CC1,-94.1
3,CCc1noc(C(C)N(C)CC(=O)Nc2cccc(C)c2C)n1 (stereo not drawn),20.2
4,CCSc1cc(C(=O)NCC(C)(C)N(C)C)ccn1,-90.6
5,CC(OCC(F)(F)F)C(=O)N1CCOCC1 (stereo not drawn),-99.6
6,CCc1ncc2c(n1)CN(Cc1cnc(C)cn1)CC2,-72.8
7,CCc1noc(C(C)N(C)CC(=O)Nc2ccccc2Cl)n1 (stereo not drawn),-89.8
8,CCc1noc(C(C)N(C)CC(=O)Nc2ccc(Cl)c(C(F)(F)F)c2)n1 (stereo not drawn),-97
9,c1csc(-c2nc(CN3CCCCC3Cn3cccn3)co2)c1 (stereo not drawn),-58
10,Cc1nc(CN2CCc3cnc(C(C)C)nc3C2)oc1C,-77.4
11,CC(C)C(C(=O)N1CCCN(Cc2cscn2)CC1)n1cncn1 (stereo not drawn),-4.6
12,O=C(c1cc(Cl)c2c(c1)OCO2)N1CCN(c2cnccn2)CC1,0.695
13,Cc1ccc(C(=O)NC2CCN(Cc3nc(C(C)C)no3)CC2)s1,-5.38
14,Cc1c(CC(=O)N2CCSCC2)nnn1-c1cccc(Cl)c1,23.4
15,O=C(c1cccc(NCCOc2ccc(F)cc2)c1)N1CCOCC1,4.98
16,CC(C)C(C(=O)N1CCN(Cc2cscn2)CC1)n1cncn1 (stereo not drawn),-1.99
17,CC(C)(NC(=O)CCc1ccco1)c1ccc2c(c1)OCCO2,-2.91
18,Cc1nc(CN2CCN(C(=O)C(C(C)C)n3cncn3)CC2)cs1 (stereo not drawn),-1.55
19,Cc1cc(CN2CCN(C(=O)C(C(C)C)n3cncn3)CC2)no1 (stereo not drawn),-8.12
20,Cc1ccc(-n2nnc(CC(=O)N3CCN(C4CC4)CC3)c2C)cc1,-8.64
21,Cc1oc(-c2ccsc2)nc1CC(=O)NCC(C)(C)CN(C)C,-9.09
22,COc1ccc(-c2nc(CN3CC(n4cccn4)C3)no2)cc1,-5.24
23,Cc1cc(C)n(C2CN(Cc3noc(C4CC4)n3)C2)n1,20.6
24,COCC(NC(=O)c1cc(C)n(C)n1)c1cccc(C(F)(F)F)c1 (stereo not drawn),4.67

row,Structure (SMILES),cytotoxicity at 70.5 h [%]
1,Cc1ccc(-c2nc(CN3CC(n4nc(C)cc4C)C3)no2)cc1,-8.79
2,CCn1nc2c(cc1=O)CN(Cc1nc3ccccc3o1)CC2,-9.68
3,CCCn1nc2c(cc1=O)CN(Cc1nc(C)c3ccccc3n1)CC2,-7.04
4,Cn1nc2c(cc1=O)CN(Cc1nc3ccccc3c(=O)[nH]1)CC2,-6.45
5,Cc1ccc(OC2CCN(S(=O)(=O)N(C)C)CC2)nc1,-12.1
6,CCc1noc(CN(Cc2cccs2)C2CC2)n1,0.387
7,CCOc1cc(CN(C)CCC(=O)OC)ccc1OC(F)F,-2.34
8,CCOc1cc(CN(C)CCC#N)ccc1OC(F)F,-5.38
9,CCOc1cc(CN(C)CCCC#N)ccc1OC(F)F,-6.87
10,O=C(C(CNCc1ccco1)c1ccccc1)N1CCOCC1 (stereo not drawn),-4.97
11,COc1cc(NCc2c(C)noc2C)c(OC)cc1Cl,10.4
12,COC(=O)CNC(=O)C1CCN(S(C)(=O)=O)CC1,-9.71
13,Cc1nn(CC(O)CN2CCc3ccccc3C2)c(=O)c2ccccc12 (stereo not drawn),-17.4
14,CCN1CCC(NC(=O)CN2CCCC(NS(C)(=O)=O)C2)CC1 (stereo not drawn),-10.1
15,Cc1nnc2n1CCN(c1nn3cc(C(C)(C)C)nc3s1)C2,-7.66
16,CNC(=O)NC(=O)CCN1CCCC1c1nc(C2CCCCC2)co1 (stereo not drawn),-7.7
17,CCN(C(=O)COc1nc(C(C)(C)C)no1)C1CC1,-2.91
18,Cc1cnn(CCNCC(O)c2ccc(C(F)(F)F)cc2)c1 (stereo not drawn),-17.1
19,Cc1cn2nc(N3CCn4c(nnc4C(C)C)C3)sc2n1,12
20,CC(NC(=O)c1ccc(C#N)cn1)C1(N2CCOCC2)CCCC1 (stereo not drawn),-7.03
21,N#Cc1ccc(F)c(CNC(=O)NC(CO)Cc2ccccc2)c1 (stereo not drawn),-3.61
22,CN(Cc1nnc2n1CCC2)S(=O)(=O)c1ccc(Br)cc1Cl,-4.12
23,CN(Cc1nnc2n1CCC2)S(=O)(=O)c1cc(Br)ccc1Br,-13.1
24,CNC(=O)NC(=O)CCSc1ccccc1Cl,-1.01

row,Structure (SMILES),cytotoxicity at 70.5 h [%]
1,O=C(COCC1CC1)NCC(c1ccccc1)N1CCc2sccc2C1 (stereo not drawn),-6.84
2,CC(NC(=O)Nc1nccs1)c1ccc(S(C)(=O)=O)cc1 (stereo not drawn),-18.5
3,Cc1cccc(N2N=C(C(=O)NC(C)Cc3ccco3)CCC2=O)c1 (stereo not drawn),-13.7
4,CC(Cc1ccco1)NC(=O)C1=NN(c2ccccc2)C(=O)CC1 (stereo not drawn),16.9
5,CC(C)N(C)C(=O)c1ccc(Cl)c(NC(=O)CCN2C(=O)CCC2=O)c1,-9.99
6,CC(C)CC(=O)Nc1cc(C(=O)N(C)C(C)C)ccc1Cl,-8.37
7,NC(=O)Nc1cccc(C(=O)N(Cc2ccc(F)cc2)C2CC2)c1,-14.8
8,CC(=O)N1CCC(NC(=O)Cc2csc(C(C)(C)C)n2)CC1,-6.85
9,Cc1nnc(CN(C)S(=O)(=O)c2ccc(Br)cc2Cl)n1C,-8.93
10,CCC(=O)NC1CCCN(C(=O)Nc2cc(-c3ccccc3)on2)C1 (stereo not drawn),-10.8
11,CC(C)OCCS(=O)(=O)c1nccn1-c1cccc(F)c1,-9.1
12,Cc1sc(Br)cc1S(=O)(=O)NCc1ccccn1,-18.2
13,COCCCNS(=O)(=O)c1cc(Br)sc1C,-6.02
14,CCC1CN(CC(=O)NCCC#N)CCO1 (stereo not drawn),2.5
15,CN1CC(NC(=O)Cc2csc(C(C)(C)C)n2)CCC1=O (stereo not drawn),20.1
16,CC(C)(C)c1noc(CCCC(=O)N2CCCC(c3ccn[nH]3)C2)n1 (stereo not drawn),-2.4
17,CCc1noc(CCCC(=O)N2CCCC(c3ccn[nH]3)C2)n1 (stereo not drawn),-5.32
18,CC1CCN(C(=O)CN2CCC(c3n[nH]c(C4CC4)n3)CC2)CC1,-1.53
19,Cc1noc(C2CCCN(CC(=O)N3CCc4ccccc4C3)C2)n1 (stereo not drawn),-1.69
20,O=C(CCN1C(=O)CCC1=O)Nc1ccc(Cl)cc1,-1.6
21,O=C(CCN1C(=O)CCC1=O)Nc1ccc(Oc2ccc(Cl)cc2)nc1,-10.7
22,Cc1noc(C2CCN(CC(=O)N3CCNC(=O)C3)CC2)n1,17.7
23,CNC(=O)c1cccc(NC(=O)NC(C)c2cc(C)oc2C)c1C (stereo not drawn),-8.35
24,CCN(C(=O)CN1CCC(c2n[nH]c(C3CC3)n2)CC1)C1CC1,-5.09

row,Structure (SMILES),cytotoxicity at 70.5 h [%]
1,C=C(C)CN1CCC(c2n[nH]c(C3CC3)n2)CC1,23.2
2,N#Cc1cccc(S(=O)(=O)Nc2c(F)cccc2N2CCCC2)c1,-5.48
3,CCOc1ccccc1CNC(=O)N(CC)C(C)c1cccnc1 (stereo not drawn),-6.76
4,CC(C)(C)Oc1ccccc1CNC(=O)C1CCCOC1 (stereo not drawn),-0.0152
5,CCOc1ccc(CNC(=O)N(C)Cc2ncnn2C)cc1C,1.14
6,O=C(c1nc(=O)[nH][nH]1)N1CCCCCC1,-1.45
7,Cc1noc(NS(=O)(=O)c2ccc(Cl)s2)c1C,-0.524
8,O=S(=O)(Nc1c(F)cccc1N1CCCC1)c1cncc(F)c1,-5.83
9,O=C(c1nc(=O)[nH][nH]1)N1CCC2(CCCCC2)C1,20.2
10,CC(=O)N(CCc1ccccc1)CC(=O)Nc1ccccc1C#N,-1.29
11,COc1ccc(CNc2nnc(CC(C)(C)C)o2)cc1C#N,-3.97
12,CCC(C)Oc1cc(C(=O)Nc2nccs2)ccn1 (stereo not drawn),0.776
13,CC(C)OCCN1CCc2cncnc2C1,4.2
14,CC(=O)N(CCC(=O)NC1(C#N)CCC1)Cc1ccccc1,21.1
15,OC(COCc1ccco1)CSc1nnc2ccccn12 (stereo not drawn),-6.03
16,CCN(C(=O)NCc1ccc(C)cc1OC)C(C)c1cccnc1 (stereo not drawn),-6.56
17,CCN(C(=O)NCc1ccccc1OC(F)F)C(C)c1cccnc1 (stereo not drawn),0.0177
18,Cc1ccc(-n2c(C)nnc2SCC(O)COCc2ccco2)cc1 (stereo not drawn),-5.42
19,Cn1cc(-c2cccc(CNC(=O)N3CCC[C@@H]3CO)c2)cn1,-4.94
20,CCOC(C(=O)N1CCn2c(nnc2C(C)C)C1)c1ccccc1 (stereo not drawn),19.3
21,COCCN(Cc1cccs1)C(=O)C1CCCN(C(N)=O)C1 (stereo not drawn),14.1
22,Cc1cc(NC(C)C(=O)NCC(F)(F)F)nc(-c2ccncc2)n1 (stereo not drawn),-16.5
23,Cc1cc(NCC(=O)NCC(F)(F)F)nc(-c2ccncc2)n1,-8.33
24,CCN(C(=O)CN1CCC(c2cc3ccccc3[nH]2)CC1)C1CC1,4.18

row,Structure (SMILES),cytotoxicity at 70.5 h [%]
1,CCN(CC)c1ccc(NC(=O)NCC2(C(N)=O)CCOCC2)cn1,1.3
2,NC(=O)C(Nc1cccc(CO)c1)c1ccc(Br)cc1 (stereo not drawn),6.7
3,COCc1cccc(NC(C(N)=O)c2ccc(Br)cc2)c1 (stereo not drawn),-9.42
4,Cc1cccc(-c2c[nH]c(C3CCCN3C(=O)c3cc(C)n[nH]3)n2)c1 (stereo not drawn),-9.63
5,CCS(=O)(=O)N(C)C1CCN(Cn2ccc(-c3ccc(F)cc3)n2)CC1,-13.9
6,O=C(CCc1ccc(Br)cc1)NCCc1nnc[nH]1,-11.9
7,CC(C)CCNC(=O)CCc1ccnc2ccccc12,-14.4
8,CNC(=O)CN(C)c1cncc(OCc2ccccc2)n1,8.53
9,CCOc1cncc(N(C)CC(=O)NC)n1,-7.85
10,NCc1ccc(Oc2cccc(Cl)c2Cl)nc1,6.23
11,Cn1ccc(CNC(=O)N2CCCC3(C2)OCCO3)c1,0.239
12,CCC(NC(=O)c1cccc2cc[nH]c12)C(=O)N1CCOCC1 (stereo not drawn),-11.2
13,CN(C)C(=O)CCS(=O)(=O)Cc1cc(Cl)c2c(c1)OCCO2,-6.03
14,CCN(CC(=O)N(C)C)S(=O)(=O)c1cnc2c(c1)c(C)nn2C,-17.2
15,CCN(CC(=O)NC)S(=O)(=O)c1cnc2c(c1)c(C)nn2C,-14.3
16,CCCN(CC(=O)OC)S(=O)(=O)c1cnc2c(c1)c(C)nn2C,-7.82
17,O=C(NCC1CCCOC1)c1ccc(-c2cccs2)[nH]c1=O (stereo not drawn),4.28
18,Cn1cc(C(=O)O)c(-c2ccc(F)cc2F)n1,-4.16
19,CC(=O)N1CCN(C(=O)CCc2cc(Br)cs2)CC1,-3.42
20,CC(C#N)(NC(=O)Cn1cc(I)cn1)C1CC1 (stereo not drawn),6.23
21,CC(=O)NCc1ccc(-n2ccnc2C)nc1,-14.4
22,CCN(Cc1csc(C)n1)c1cccc(CO)c1,-3.7
